The results in this text go back to paper PMC3265452 (PLoS Neglected Tropical Diseases, 2012).

SMILES strings stand for the structures. Counter-ions that a name gives are not always drawn.

Sequence of AaDOP2 (H6D5H2 1-476): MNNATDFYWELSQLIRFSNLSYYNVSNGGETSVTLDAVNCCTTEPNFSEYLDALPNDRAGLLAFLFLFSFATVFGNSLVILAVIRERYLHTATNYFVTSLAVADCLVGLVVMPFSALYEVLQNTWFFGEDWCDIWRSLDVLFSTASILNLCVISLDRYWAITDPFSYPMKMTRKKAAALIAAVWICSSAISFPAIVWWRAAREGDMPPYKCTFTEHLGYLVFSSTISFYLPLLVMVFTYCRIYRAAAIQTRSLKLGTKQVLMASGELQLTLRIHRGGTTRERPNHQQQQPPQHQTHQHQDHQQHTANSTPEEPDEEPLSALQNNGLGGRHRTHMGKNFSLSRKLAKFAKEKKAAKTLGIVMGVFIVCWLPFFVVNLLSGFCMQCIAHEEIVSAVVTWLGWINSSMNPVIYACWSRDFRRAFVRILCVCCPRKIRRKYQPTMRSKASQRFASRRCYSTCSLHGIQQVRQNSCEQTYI

One assay addresses AaDOP2 (Aedes aegypti, UniProt H6D5H2). Description: AaDOP2 antagonist screen of the LOPAC1280 library (HEK-CRELuc-Aadop2 cells, luminescence). In kind it is cell-based.
Conditions: not given
`C[C@H](CCC(=O)NCCS(=O)(=O)O)[C@H]1CC[C@H]2[C@@H]3[C@H](O)C[C@@H]4C[C@H](O)CC[C@]4(C)[C@H]3C[C@H](O)[C@]12C` [Compound 66, Sodium Taurocholate]: the “Compound effect (percent receptor signaling in presence of test compound, relative lux units relative to the SCH23390 control)” value amounted to 115.
Consider `NCCCNCCSP(=O)(O)O` [Compound 67, Amifostine], for which the “Compound effect (percent receptor signaling in presence of test compound, relative lux units relative to the SCH23390 control)” value is on record as 111.
For `CC(=O)Nc1nnc(S(N)(=O)=O)s1` [Compound 68, Acetazolamide], the “Compound effect (percent receptor signaling in presence of test compound, relative lux units relative to the SCH23390 control)” value is given as 106.
Same read-out and setting: with `COC(=O)C1=CCCN(C)C1` [Compound 69, Arecoline hydrobromide] the figure was 104; with `CCS(=O)(=O)Nc1cccc(C(=C2CCCCC2)c2cnc[nH]2)c1` [Compound 70, A-315456], 111; with `COc1ccc(CNC(=O)/C=C/c2ccc3[nH]cc(CCN(C)C)c3c2)cc1` [Compound 71, GR 4661], 114.
As to `CCCCC[C@H](CC(=O)NO)C(=O)N[C@H](C(=O)N1CCC[C@H]1CO)C(C)C` [Compound 73, Actinonin], the “Compound effect (percent receptor signaling in presence of test compound, relative lux units relative to the SCH23390 control)” value is on record as 96.
With `CN(Cc1cnc2nc(N)nc(N)c2n1)c1ccc(C(=O)N[C@@H](CCC(=O)O)C(=O)O)cc1` [Compound 74, Methotrexate], the “Compound effect (percent receptor signaling in presence of test compound, relative lux units relative to the SCH23390 control)” value is listed as 89.
On the same count and under the same terms, with `C[N+]1(C)[C@@H]2CC[C@H]1C[C@@H](OC(=O)C(CO)c1ccccc1)C2` (some centres unmarked) [Compound 75, Atropine methyl bromide] the figure was 105; with `CCNC(=O)N1CCN(CCCC(c2ccc(F)cc2)c2ccc(F)cc2)CC1` [Compound 76, Amperozide hydrochloride], 17.
On the same count and under the same terms, with `NCCCCN=C(N)N` [Compound 78, Agmatine sulfate] the figure was 113.
For `Cl.Cl.N=C(N)c1ccc(N)cc1` [Compound 79, 4-Aminobenzamidine dihydrochloride], the “Compound effect (percent receptor signaling in presence of test compound, relative lux units relative to the SCH23390 control)” value stood at 106.
Take `NCCCP(=O)(O)O` [Compound 80, 3-Aminopropylphosphonic acid]: the “Compound effect (percent receptor signaling in presence of test compound, relative lux units relative to the SCH23390 control)” value is given as 101.
On the same count and under the same terms, with `CC(=O)N[C@@H](CS)C(=O)O` [Compound 81, N-Acetyl-L-Cysteine] the figure was 101; with `N[C@@H](CCCC(=O)O)C(=O)O` [Compound 82, L-2-aminoadipic acid], 96; with `CC(=O)NCCc1c[nH]c2ccccc12` [Compound 83, N-Acetyltryptamine], 42.
`N=C(N)NC(=O)c1nc(Cl)c(N)nc1N` [Compound 84, Amiloride hydrochloride]: the “Compound effect (percent receptor signaling in presence of test compound, relative lux units relative to the SCH23390 control)” value was determined as 110.
On to `C[C@]12CC[C@@H](O)C[C@@H]1CC[C@@H]1[C@@H]2CC[C@]2(C)[C@@H](O)CC[C@@H]12` [Compound 86, 5alpha-Androstane-3alpha,17beta-diol], for which the “Compound effect (percent receptor signaling in presence of test compound, relative lux units relative to the SCH23390 control)” value was 98.
Turning to `C=CC[C@H](N)C(=O)O` [Compound 87, L-allylglycine], the “Compound effect (percent receptor signaling in presence of test compound, relative lux units relative to the SCH23390 control)” value turned out to be 107.
As for `NCCCCCC(=O)O` [Compound 89, 6-Aminohexanoic acid], the “Compound effect (percent receptor signaling in presence of test compound, relative lux units relative to the SCH23390 control)” value came to 120.
Regarding `Oc1ncnc2[nH]ncc12` [Compound 91, Allopurinol], the “Compound effect (percent receptor signaling in presence of test compound, relative lux units relative to the SCH23390 control)” value is recorded as 101.
Take `CCCCc1oc2ccccc2c1C(=O)c1cc(I)c(OCCN(CC)CC)c(I)c1` [Compound 93, Amiodarone hydrochloride]: the “Compound effect (percent receptor signaling in presence of test compound, relative lux units relative to the SCH23390 control)” value is recorded as 104.
Same read-out and setting: next, `Cl.NCCc1ccc(S(=O)(=O)F)cc1` [Compound 94, 4-(2-Aminoethyl)benzenesulfonyl fluoride hydrochloride]: 105; `N=c1ccn2c(n1)O[C@H]1[C@H](O)[C@@H](CO)O[C@H]12` [Compound 95, Ancitabine hydrochloride]: 119; `C=CCc1ccccc1OCC(O)CNC(C)C` (centres unmarked) [Compound 96, Alprenolol hydrochloride]: 104.
For the molecule `CN(C)c1nc(N(C)C)nc(N(C)C)n1` [Compound 97, Altretamine], the “Compound effect (percent receptor signaling in presence of test compound, relative lux units relative to the SCH23390 control)” value was determined as 105.
On the same count and under the same terms, next, `C=CC[N+](C)(C)c1ccc(CCC(=O)CCc2ccc([N+](C)(C)CC=C)cc2)cc1.[Br-].[Br-]` [Compound 100, BW 284c51]: 93; `Nc1ncnc2c1ncn2[C@@H]1O[C@H](CO)[C@@H](O)[C@H]1O` [Compound 101, Adenosine]: 96; `N[C@@H](CC(=O)O)C(=O)O` [Compound 102, L-Aspartic acid]: 106.
The same measure, in the same setting: next, `CC1=C(/C=C/C(C)=C/C=C/C(C)=C/C=C/C=C(C)/C=C/C=C(C)/C=C/C2=C(C)C(=O)[C@@H](O)CC2(C)C)C(C)(C)C[C@H](O)C1=O` [Compound 103, Astaxanthin]: 106.
On to `Nc1ccc(N2C(=O)c3ccccc3C2=O)c(Cl)c1` [Compound 104, N-(4-Amino-2-chlorophenyl)phthalimide], for which the “Compound effect (percent receptor signaling in presence of test compound, relative lux units relative to the SCH23390 control)” value was found to be 99.
On the same count and under the same terms, with `C[C@]12CCC(=O)C=C1CC[C@@H]1[C@@H]2CC[C@]2(C)C(=O)CC[C@@H]12` [Compound 108, 4-Androstene-3,17-dione] the figure was 115; with `COc1cc(NS(C)(=O)=O)ccc1Nc1c2ccccc2nc2ccccc12` [Compound 112, Amsacrine hydrochloride], 97.
In the case of `CN(Cc1cnc2nc(N)nc(N)c2n1)c1ccc(C(=O)N[C@@H](CCC(=O)O)C(=O)O)cc1` [Compound 114, (-)Amethopterin], the “Compound effect (percent receptor signaling in presence of test compound, relative lux units relative to the SCH23390 control)” value came out at 116.
Regarding `COc1ccc(C(=O)N2CCCC2=O)cc1` [Compound 116, Aniracetam], the “Compound effect (percent receptor signaling in presence of test compound, relative lux units relative to the SCH23390 control)” value came to 101.
As for `CCn1c(=O)c2[nH]c(-c3ccccc3)nc2n(CC)c1=O` [Compound 117, 1,3-Diethyl-8-phenylxanthine], the “Compound effect (percent receptor signaling in presence of test compound, relative lux units relative to the SCH23390 control)” value was 105.
Still for that read-out and setting: with `Cn1c(=O)c2[nH]c(-c3ccc(S(=O)(=O)O)cc3)nc2n(C)c1=O` [Compound 118, 8-(p-Sulfophenyl)theophylline] the figure was 98; with `CCCn1c(=O)c2[nH]c(-c3ccc(S(=O)(=O)O)cc3)nc2n(CCC)c1=O` [Compound 119, 1,3-Dipropyl-8-p-sulfophenylxanthine], 91.
Same read-out and setting: next, `NCCNC(=O)Cc1ccc(NC(=O)Cc2ccc(Nc3ncnc4c3ncn4[C@@H]3O[C@H](CO)[C@@H](O)[C@H]3O)cc2)cc1` [Compound 122, Adenosine amine congener]: 105; `CN1[C@@H]2CC[C@H]1C[C@@H](OC(c1ccccc1)c1ccccc1N)C2` (some centres unmarked) [Compound 125, Aminobenztropine]: 30; `C#CCOC(=O)C1=CCCN(C)C1` [Compound 126, Arecaidine propargyl ester hydrobromide]: 85.

Still in this assay, the particulars now being: 10 µM compound, 300 nM dopamine, 2 hr; hit = compound effect <20.
On to `NCC(O)(CS(=O)(=O)O)c1ccc(Cl)cc1` (centres unmarked) [Compound 72, 2-Hydroxysaclofen], for which the “Compound effect (percent receptor signaling in presence of test compound, relative lux units relative to the SCH23390 control)” value amounted to 110%.
Still for that read-out and setting: next, `NN=C(N)N.NN=C(N)N.O=S(=O)(O)O` [Compound 77, Aminoguanidine hemisulfate]: 107%.
Same read-out and setting: next, `Cl.Cl.NCCNS(=O)(=O)c1cccc2cnccc12` [Compound 88, H-9 dihydrochloride]: 64%; `CC(=O)NCCc1ccc(O)c(O)c1.O` [Compound 98, N-Acetyldopamine monohydrate]: 95%.
The same measure, in the same setting: with `Cl.N=C(N)NN` [Compound 99, Aminoguanidine hydrochloride] the figure was 107%.
Consider `NC(N)=NC(=O)c1nc(Cl)c(N2CCCCCC2)nc1N` [Compound 107, 5-(N,N-hexamethylene)amiloride], for which the “Compound effect (percent receptor signaling in presence of test compound, relative lux units relative to the SCH23390 control)” value turned out to be 82%.
Consider `Cl.c1ccc(CN(CC2=NCCN2)c2ccccc2)cc1` [Compound 115, Antozoline hydrochloride], for which the “Compound effect (percent receptor signaling in presence of test compound, relative lux units relative to the SCH23390 control)” value was determined as 115%.
With `CNC(=O)[C@H]1O[C@@H](n2cnc3c(N)ncnc32)[C@H](O)[C@@H]1O` [Compound 121, 5'-N-Methyl carboxamidoadenosine], the “Compound effect (percent receptor signaling in presence of test compound, relative lux units relative to the SCH23390 control)” value turned out to be 114%.

Staying with this assay, now noted: read-out: % of the SCH23390 effect (percent inhibition of receptor response relative to the SCH23390 control).
Take `CCNC(=O)N1CCN(CCCC(c2ccc(F)cc2)c2ccc(F)cc2)CC1` [Compound 76, Amperozide hydrochloride]: the inhibition at 10 µM amounted to 83%.

As a reminder, the inhibition is the percentage by which the read-out fell short of the control.
